Laboratory results taken from ChEMBL document CHEMBL1201862, “PubChem BioAssay data set” (2004).
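96-well plates; 48 h exposure; 5 concentrations. Endpoints by linear interpolation between flanking doses. Not reached: highest tested concentration assigned. GI50 is the concentration that inhibits growth by half.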 Calls of active or inactive are those of the source. Rule as the data show it: active = GI50 up to about 1.1 µM and inactive = higher.

How the values were obtained:
Experiment in all cases: NCI tumour cell line growth inhibition, 48 h
786-0 = system: 786-0
A549 = system: A549
ACHN = system: ACHN
CCRF-CEM = system: CCRF-CEM
COLO 205 = system: COLO 205
DMS-114 = system: DMS-114
DMS-273 = system: DMS-273
EKVX = system: EKVX
HCT-116 = system: HCT-116
HCT-15 = system: HCT-15
HL-60 = system: HL-60
HOP-62 = system: HOP-62
HT-29 = system: HT-29
IGROV-1 = system: IGROV-1
K562 = system: K562
KM-20L2 = system: KM-20L2
KM12 = system: KM12
LOX IMVI = system: LOX IMVI
LXFL 529 = system: LXFL 529
M14 = system: M14
M19-MEL = system: M19-MEL
MOLT-4 = system: MOLT-4
Malme-3M = system: Malme-3M
NCI-H226 = system: NCI-H226
NCI-H23 = system: NCI-H23
NCI-H460 = system: NCI-H460
NCI-H522 = system: NCI-H522
OVCAR-3 = system: OVCAR-3
OVCAR-4 = system: OVCAR-4
OVCAR-5 = system: OVCAR-5
OVCAR-8 = system: OVCAR-8
RPMI-8226 = system: RPMI-8226
RXF 393 = system: RXF 393
SF-268 = system: SF-268
SF-295 = system: SF-295
SF-539 = system: SF-539
SK-MEL-28 = system: SK-MEL-28
SK-MEL-2 = system: SK-MEL-2
SK-MEL-5 = system: SK-MEL-5
SN12C = system: SN12C
SNB-19 = system: SNB-19
SNB-75 = system: SNB-75
SNB-78 = system: SNB-78
SR = system: SR
SW-620 = system: SW-620
TK-10 = system: TK-10
U-251 = system: U-251
UACC-62 = system: UACC-62
UO-31 = system: UO-31
XF498 = system: XF498
A498 = system: A498
CAKI-1 = system: CAKI-1
DLD-1 = system: DLD-1
HCC 2998 = system: HCC 2998
HOP-92 = system: HOP-92
MCF7 = system: MCF7
NCI/ADR-RES = system: NCI/ADR-RES
SK-OV-3 = system: SK-OV-3
UACC-257 = system: UACC-257

For `CC(=O)Nc1cc2c(s1)CCC1CC(=O)NN=C21` (stereo unspecified), the GI50 (786-0) was > 100 µM (inactive), the GI50 (A549) was > 100 µM (inactive) and the GI50 (ACHN) was > 100 µM (inactive). The GI50 (CCRF-CEM) was > 100 µM (inactive), the GI50 (COLO 205) was > 100 µM (inactive) and the GI50 (DMS-114) was > 100 µM (inactive). For the same molecule, the GI50 (DMS-273) was > 100 µM (inactive), the GI50 (EKVX) was > 100 µM (inactive) and the GI50 (HCT-116) was > 100 µM (inactive). For the same molecule, the GI50 (HCT-15) was greater than 100 µM, the GI50 (HL-60) was > 100 µM (inactive) and the GI50 (HOP-62) was > 100 µM (inactive). The GI50 (HT-29) was > 100 µM (inactive), the GI50 (IGROV-1) was > 100 µM (inactive) and the GI50 (K562) was > 100 µM (inactive). The GI50 (KM-20L2) was > 100 µM (inactive), the GI50 (KM12) was > 100 µM (inactive) and the GI50 (LOX IMVI) was > 100 µM (inactive). The GI50 (LXFL 529) was > 100 µM (inactive), the GI50 (M14) was > 100 µM (inactive) and the GI50 (M19-MEL) was > 100 µM (inactive). The GI50 (MOLT-4) was > 100 µM (inactive), the GI50 (Malme-3M) was > 100 µM (inactive) and the GI50 (NCI-H226) was > 100 µM (inactive). The GI50 (NCI-H23) was > 100 µM (inactive), the GI50 (NCI-H460) was > 100 µM (inactive) and the GI50 (NCI-H522) was > 100 µM (inactive). For the same molecule, the GI50 (OVCAR-3) was > 100 µM (inactive), the GI50 (OVCAR-4) was > 100 µM (inactive) and the GI50 (OVCAR-5) was > 100 µM (inactive). For the same molecule, the GI50 (OVCAR-8) was > 100 µM (inactive), the GI50 (RPMI-8226) was > 100 µM (inactive) and the GI50 (RXF 393) was > 100 µM (inactive). For the same molecule, the GI50 (SF-268) was > 100 µM (inactive), the GI50 (SF-295) was > 100 µM (inactive) and the GI50 (SF-539) was > 100 µM (inactive). The GI50 (SK-MEL-28) was > 100 µM (inactive), the GI50 (SK-MEL-2) was > 100 µM (inactive) and the GI50 (SK-MEL-5) was > 100 µM (inactive). The GI50 (SN12C) was > 100 µM (inactive), the GI50 (SNB-19) was > 100 µM (inactive) and the GI50 (SNB-75) was 26.5 µM (inactive). For the same molecule, the GI50 (SNB-78) was > 100 µM (inactive), the GI50 (SR) was > 100 µM (inactive) and the GI50 (SW-620) was > 100 µM (inactive). For the same molecule, the GI50 (TK-10) was > 100 µM (inactive), the GI50 (U-251) was > 100 µM (inactive) and the GI50 (UACC-62) was > 100 µM (inactive). The GI50 (UO-31) was > 100 µM (inactive) and the GI50 (XF498) was > 100 µM (inactive).
`Nc1cccc2c1C1=NNC(=O)CC1C2` (stereo unspecified) was tested, and the GI50 (A498) was > 100 µM (inactive), the GI50 (A549) was > 100 µM (inactive) and the GI50 (CAKI-1) was > 100 µM (inactive). The GI50 (CCRF-CEM) was > 100 µM (inactive), the GI50 (COLO 205) was > 100 µM (inactive) and the GI50 (DLD-1) was > 100 µM (inactive). The GI50 (DMS-114) was > 100 µM (inactive), the GI50 (DMS-273) was > 100 µM (inactive) and the GI50 (EKVX) was > 76.6 µM (inactive). For the same molecule, the GI50 (HCC 2998) was > 100 µM (inactive), the GI50 (HCT-116) was > 100 µM (inactive) and the GI50 (HCT-15) was greater than 100 µM. For the same molecule, the GI50 (HL-60) was > 66.5 µM (inactive), the GI50 (HOP-62) was > 66.5 µM (inactive) and the GI50 (HOP-92) was 2.51 µM (inactive). For the same molecule, the GI50 (IGROV-1) was > 100 µM (inactive), the GI50 (K562) was > 100 µM (inactive) and the GI50 (KM-20L2) was > 100 µM (inactive). For the same molecule, the GI50 (KM12) was > 100 µM (inactive), the GI50 (LOX IMVI) was > 100 µM (inactive) and the GI50 (M19-MEL) was > 100 µM (inactive). For the same molecule, the GI50 (MCF7) was > 100 µM (inactive), the GI50 (MOLT-4) was > 100 µM (inactive) and the GI50 (Malme-3M) was > 100 µM (inactive). The GI50 (NCI-H226) was > 100 µM (inactive), the GI50 (NCI-H460) was > 100 µM (inactive) and the GI50 (NCI-H522) was > 100 µM (inactive). For the same molecule, the GI50 (NCI/ADR-RES) was > 100 µM (inactive), the GI50 (OVCAR-3) was > 100 µM (inactive) and the GI50 (OVCAR-4) was > 100 µM (inactive). For the same molecule, the GI50 (OVCAR-5) was > 100 µM (inactive), the GI50 (OVCAR-8) was > 100 µM (inactive) and the GI50 (RPMI-8226) was > 100 µM (inactive). The GI50 (RXF 393) was > 100 µM (inactive), the GI50 (SF-268) was > 100 µM (inactive) and the GI50 (SF-295) was > 100 µM (inactive). The GI50 (SF-539) was > 100 µM (inactive), the GI50 (SK-MEL-28) was > 100 µM (inactive) and the GI50 (SK-MEL-2) was > 100 µM (inactive). The GI50 (SK-MEL-5) was > 100 µM (inactive), the GI50 (SK-OV-3) was > 100 µM (inactive) and the GI50 (SN12C) was > 100 µM (inactive). The GI50 (SNB-19) was > 100 µM (inactive), the GI50 (SNB-75) was > 100 µM (inactive) and the GI50 (SNB-78) was > 100 µM (inactive). For the same molecule, the GI50 (SW-620) was > 100 µM (inactive), the GI50 (U-251) was > 100 µM (inactive) and the GI50 (UACC-257) was > 100 µM (inactive). The GI50 (UACC-62) was > 100 µM (inactive), the GI50 (UO-31) was > 100 µM (inactive) and the GI50 (XF498) was > 100 µM (inactive).
